Source: US8815219B2, “Sunless tanning with pyranones and furanones” (Conopco, Inc., priority 2009, dated 2014)

Assays:
[1] = Dissolution of Allomaltol in the aqueous composition; format: physicochemical; settings: 3 wt.% Allomatol in 5% DHA, 5% glycine, balance water (Example 3 Sample 5)
Source text: (§1) Compositions comprising Allomaltol were made by mixing the following: […]

[2] = Visual observation and photographs of tanning rate (color formation) in DHA/glycine compositions; settings: Allomaltol 0.5-3 wt.% added to 5% DHA, 5% glycine in water; visual observations and photographs
Source text: as §1

[3] = Color development of DHA/glycine compositions by spectrophotometer at 400 nm; settings: for enhancement in tanning: Example 6, conclusion from 6 and 27 hour results, DHA 5%, glycine 5%
Protocol: Color development for the above was also assessed using a spectrophotometer set at a wavelength of 400 nm. […] Compositions comprising KOjic acid or Allomaltol were made by mixing the following ingredients at room temperature. […] Visual observation and photographs were taken after 27 hours of mixing. […] 35%, 38% and 19%, respectively, as determined by assessing the Samples with a Spectrophotometer, wavelength 400 nm. […] Compositions were made by mixing the following ingredients at room temperatures. […] All percents are by weight. The Samples were assessed for color development (with a Spectrophometer, 400 nm wavelength) three (3) days after mixing. […] The following compositions were mixed in a manner similar to the one described in Example 7. The Samples were assessed (with a Spectrophotometer, 400 nm wavelength) fifteen (15) hours after mixing.

[4] = 400 nm, after 20 hours of mixing, 5% DHA, 5% glycine

## Cc1cc(=O)c(O)co1 [Allomaltol, 3-hydroxy-6-methyl, 4-pyrone]
[1]
  Allomatol dissolved: ***= circa 95% Allomatol was dissolved.
[2]
  tanning rate (color formation): enhanced
[3]; [4]
  color development at 3% Allomaltol greater than at 0.5% Allomaltol: 45%
  color development at 3% Allomaltol greater than at 1% Allomaltol: 40%
  color development at 3% Allomaltol greater than at 2% Allomaltol: 20%
  color development at 3% Allomaltol greater than composition deplete of adjuvant: 60%
[3]
  enhancement in tanning: enhancement in tanning

## O=c1cc(CO)occ1O [Kojic acid]
[3]
  enhancement in tanning: enhancement in tanning

## Cc1cc(=O)c(NCC(=O)O)co1 [adjuvant]
[3]; Example 8, 0.5% adjuvant, 5% glycine, fifteen hours after mixing
  color body generation with glycine and no DHA: No color body generation

## O=c1cc(CCl)occ1O [chlorinated adjuvant]
[3]; Example 7, 0.25% chlorinated adjuvant, 5% glycine, three days after mixing
  color body generation with glycine and no DHA: No color body generation
